Data: ChEMBL document CHEMBL1201862, “PubChem BioAssay data set” (2004)
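Values below derive from 48-hour exposures of cells grown in 96-well plates, with endpoints linearly interpolated between the two concentrations bracketing the appropriate inhibition level. GI50 = concentration required for 50% inhibition of growth.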 Activity calls are given as the source filed them. No stated cut-off is given here; in the data, active = GI50 up to about 1.1 µM and inactive = higher.

Columns and labels:
Test in all cases: NCI tumour cell line growth inhibition, 48 h
[1] = system: EKVX
[2] = system: HL-60
[3] = system: Hs-578T
[4] = system: IGROV-1
[5] = system: K562
[6] = system: MDA-MB-435
[7] = system: MOLT-4
[8] = system: NCI-H522
[9] = system: OVCAR-5
[10] = system: OVCAR-8
[11] = system: SK-MEL-28
[12] = system: SK-MEL-2
[13] = system: SK-MEL-5
[14] = system: SNB-19
[15] = system: SNB-75
[16] = system: TK-10
[17] = system: U-251
[18] = system: UACC-257
[19] = system: UO-31
[20] = system: RXF 393

Measured: GI50

CCOC(=O)C1(Cc2ccc3c(c2)CCC3)Cc2cc3c(cc2C1=O)CCC3 (centres undefined)
inactive: [1] 97.5 µM | [2] 2.84 µM | [3] > 100 µM | [4] > 100 µM | [5] 9.95 µM | [6] 36.3 µM | [7] 11.9 µM | [8] 47.8 µM | [9] > 100 µM | [10] > 91.2 µM | [11] > 100 µM | [12] > 100 µM | [13] 20.1 µM | [14] > 100 µM | [15] 53.7 µM | [16] > 100 µM | [17] > 78 µM | [18] 31.3 µM | [19] 42.3 µM

c1ccc(NNC2=NCCN2)cc1
inactive: [1] > 100 µM | [2] > 100 µM | [3] > 100 µM | [4] > 100 µM | [5] > 100 µM | [6] > 100 µM | [7] > 100 µM | [8] > 100 µM | [9] > 100 µM | [10] > 100 µM | [11] > 100 µM | [12] > 100 µM | [13] > 100 µM | [14] > 100 µM | [15] > 100 µM | [16] > 100 µM | [17] > 100 µM | [18] > 100 µM | [19] > 100 µM

O=c1/c(=C/c2ccc3c(c2)OCO3)sc2nnc(-c3ccco3)n12
inactive: [1] > 100 µM | [2] > 100 µM | [4] > 100 µM | [5] > 100 µM | [7] > 100 µM | [8] > 100 µM | [9] > 100 µM | [10] > 100 µM | [20] > 100 µM | [11] > 100 µM | [12] > 100 µM | [13] > 100 µM | [14] > 100 µM | [15] 28.2 µM | [16] > 100 µM | [17] > 100 µM | [18] 15.3 µM | [19] > 100 µM

Cc1n[nH]c(=O)n1/N=C/c1ccc(Cl)cc1
inactive: [1] 13.3 µM | [5] > 100 µM | [6] > 100 µM | [7] 54.3 µM | [8] 21.7 µM | [9] > 100 µM | [10] 83.6 µM | [20] 22.3 µM | [11] > 100 µM | [14] 61.9 µM | [15] 41.2 µM | [18] 81.8 µM | [19] 61.1 µM

O=C(c1ccccc1)N1CCN(C(=S)NC2CCCCC2)C1=S
inactive: [1] 16.1 µM | [2] 21.9 µM | [3] 19 µM | [4] 24.2 µM | [5] 33.3 µM | [6] 19.5 µM | [7] 17.5 µM | [8] 15.8 µM | [9] 21.7 µM | [10] 17 µM | [11] 14.9 µM | [12] 4.58 µM | [13] 17.4 µM | [15] 11.1 µM | [16] 25.8 µM | [17] 9.89 µM | [18] 18.7 µM | [19] 16.1 µM

O=C(O)c1nc2ccc(C(F)(F)F)cc2nc1NCc1ccc(Cl)c(Cl)c1
inactive: [1] 15.8 µM | [4] 13.9 µM | [5] 16.9 µM | [6] 15.6 µM | [7] 12.3 µM | [9] 13.5 µM | [10] 16.3 µM | [11] 17.6 µM | [12] 12.5 µM | [13] 21.4 µM | [14] 12.6 µM | [15] 20.7 µM | [17] 13.8 µM | [18] 21.2 µM | [19] 13.4 µM

c1ccc2c(c1)ccc1nc(-c3ccc4c(c3)OCO4)c3c(c12)CCCC3
inactive: [1] 37.1 µM | [3] 2.39 µM | [5] 16.3 µM | [6] 27.5 µM | [7] 8.26 µM | [9] 93.5 µM | [10] 20.2 µM | [11] 30.2 µM | [12] 23.2 µM | [14] 77.8 µM | [15] 31.1 µM | [17] 7.6 µM | [18] 30.1 µM | [19] 20.9 µM

Brc1ccc(-c2nnc(-c3nn(-c4ccccc4)c4nc5ccccc5nc34)o2)cc1
inactive: [1] > 100 µM | [2] 27.3 µM | [4] > 100 µM | [5] 27 µM | [7] 33.5 µM | [8] > 100 µM | [9] 68.9 µM | [10] > 100 µM | [20] > 100 µM | [11] > 100 µM | [12] 60 µM | [13] 21.3 µM | [14] > 100 µM | [15] > 100 µM | [16] > 100 µM | [17] > 100 µM | [18] 92 µM | [19] > 100 µM
